From ChEMBL document CHEMBL1201862, “PubChem BioAssay data set” (2004) come the findings set out here.

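Five compound concentrations were applied to cells in 96-well plates for 48 hours; endpoints were derived by simple linear interpolation of the resulting dose-response curve. GI50 = concentration required for 50% inhibition of growth.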 Calls of active or inactive are those of the source. Cut-off read from the data, not from the text of the source: active = GI50 up to about 1.1 µM and inactive = higher. Where only a bound is given, the exact number is not on record here.

Among the test systems are 786-0; ACHN; DLD-1; HCT-116; HT-29; IGROV-1; KM12; Malme-3M; NCI-H226; NCI-H23; OVCAR-4; OVCAR-5; RPMI-8226; RXF 393; SK-MEL-2; SW-620; UACC-257; SF-295.
Common to all, as to experiment: growth of human tumour cells (NCI), 48 h

Consider `CN(C)CCNC(=O)c1cccc2cc3c(Cl)cccc3nc12`, for which the GI50 in the assay on 786-0 was 1.12 µM (active); in the assay on ACHN, 0.413 µM (active); in the assay with DLD-1 it was 1.17 µM (inactive); in the assay with HCT-116, 0.601 µM (active); in the assay on HT-29, 0.889 µM (active); with IGROV-1 it was 1.2 µM (inactive). For the same molecule, the GI50 in the assay with KM12 is 1.31 µM (inactive); in the assay with Malme-3M, 0.865 µM (active); in the assay on NCI-H226, 1.15 µM (inactive); with NCI-H23, 1.38 µM (inactive); in the assay with OVCAR-4, 2.02 µM (inactive); in the assay on OVCAR-5 it was 2.61 µM (inactive). In addition, the GI50 in the assay on RPMI-8226 is 1.64 µM (inactive); in the assay with RXF 393 it was 1.7 µM (inactive); in the assay with SK-MEL-2 it was 1.75 µM (inactive); in the assay with SW-620, 0.641 µM (active); in the assay on UACC-257, 1.75 µM (inactive).

With `COc1cc([C@@H]2c3cc4c(cc3[C@@H](OC(=O)c3cccc(N)c3)C3COC(=O)[C@@H]32)OCO4)cc(OC)c1O` (stereo partly drawn), the GI50 in the assay with 786-0 was 2.49 µM (inactive); in the assay with ACHN, 1.96 µM (inactive); in the assay on DLD-1 it was 12.3 µM (inactive); in the assay on HCT-116 it was 5.71 µM (inactive); with HT-29, 3.13 µM (inactive); with IGROV-1, 13.8 µM (inactive). In addition, the GI50 in the assay on KM12 is 17.8 µM (inactive); in the assay on Malme-3M it was 2.37 µM (inactive); in the assay with NCI-H226, 1.15 µM (inactive); with NCI-H23, 1.19 µM (inactive); in the assay with OVCAR-4, 42.1 µM (inactive); in the assay on OVCAR-5 it was 17.9 µM (inactive). The GI50 is 3.86 µM (inactive) in the assay with RPMI-8226; 0.632 µM (active) in the assay on RXF 393; 0.32 µM (active) in the assay on SF-295; 14.9 µM (inactive) in the assay with SK-MEL-2; 3.33 µM (inactive) in the assay on SW-620; 5.69 µM (inactive) with UACC-257.

For `CC(C)(CCl)NC(=O)c1cccc(C(=O)NC(C)(C)CCl)n1`, the GI50 in the assay with 786-0, in the assay on ACHN, in the assay with DLD-1, in the assay with HCT-116, with HT-29 and in the assay with IGROV-1 was > 100 µM (inactive) throughout. Further, the GI50 in the assay on KM12, in the assay with Malme-3M, in the assay on NCI-H226, in the assay on NCI-H23, in the assay with OVCAR-4 and with OVCAR-5 was > 100 µM (inactive) each time. Also, the GI50 with RPMI-8226, in the assay with RXF 393, in the assay on SF-295, in the assay on SK-MEL-2 and with SW-620 was > 100 µM (inactive) in each case.

As to `Cc1cn2c(=O)c3ccccc3nc2s1`, the GI50 in the assay with 786-0, in the assay with ACHN, in the assay on DLD-1, in the assay on HCT-116, with HT-29 and in the assay with IGROV-1 was > 100 µM (inactive) each time. Moreover, the GI50 in the assay with KM12 is > 100 µM (inactive); with Malme-3M, > 100 µM (inactive); in the assay with NCI-H226, > 100 µM (inactive); with NCI-H23 it was > 100 µM (inactive); in the assay on OVCAR-4, 76.6 µM (inactive); in the assay on OVCAR-5, > 100 µM (inactive). The GI50 in the assay on RPMI-8226, in the assay on RXF 393, with SF-295, with SK-MEL-2, in the assay with SW-620 and in the assay with UACC-257 was > 100 µM (inactive) each time.

As to `COc1ccccc1C(O)(c1ccccc1)C(O)(c1ccccc1)c1ccccc1OC` (stereo not drawn), the GI50 with 786-0, in the assay on ACHN, in the assay with DLD-1, in the assay with HCT-116, with HT-29 and with IGROV-1 was > 100 µM (inactive) each time. Besides, the GI50 in the assay with KM12, with Malme-3M, with NCI-H226, in the assay with NCI-H23, in the assay with OVCAR-4 and in the assay on OVCAR-5 was > 100 µM (inactive) throughout. Further, the GI50 in the assay with RPMI-8226 was > 24.4 µM (inactive); in the assay with RXF 393, > 100 µM (inactive); with SF-295, > 100 µM (inactive); in the assay on SK-MEL-2, > 100 µM (inactive); in the assay with SW-620, > 100 µM (inactive); with UACC-257, > 100 µM (inactive).

As for `CCOC(=O)c1cn(CC)c2cc3c(cc2c1=O)SCS3`, the GI50 in the assay with 786-0, with ACHN, in the assay with DLD-1, with HT-29, in the assay with IGROV-1 and with KM12 was > 100 µM (inactive) in each case. The GI50 with Malme-3M, with NCI-H23, with OVCAR-4, in the assay on OVCAR-5, in the assay with RPMI-8226 and in the assay with RXF 393 was > 100 µM (inactive) each time. For the same molecule, the GI50 in the assay with SF-295, with SK-MEL-2, with SW-620 and in the assay with UACC-257 was > 100 µM (inactive) each time.

With `O=C(Nc1nc2ncn(CCOC(=O)c3ccccc3)c2c(=S)[nH]1)c1ccccc1`, the GI50 with 786-0 is 62.5 µM (inactive); in the assay with ACHN it was > 100 µM (inactive); with DLD-1, > 100 µM (inactive); in the assay with HCT-116, > 100 µM (inactive); with HT-29, > 100 µM (inactive); with IGROV-1, > 100 µM (inactive). Besides, the GI50 was > 100 µM (inactive) in the assay with KM12; 42.5 µM (inactive) with Malme-3M; 47.5 µM (inactive) with NCI-H226; 23.5 µM (inactive) in the assay on OVCAR-4; > 100 µM (inactive) with OVCAR-5; > 100 µM (inactive) in the assay on RPMI-8226. The GI50 was 18.6 µM (inactive) in the assay on RXF 393; 45 µM (inactive) in the assay on SF-295; 41.6 µM (inactive) in the assay with SK-MEL-2; > 100 µM (inactive) with SW-620; 55.8 µM (inactive) in the assay with UACC-257.

As to `COC(=O)C(=O)C(C#N)c1nc2ccccc2s1` (stereo not drawn), the GI50 is > 100 µM (inactive) with 786-0; > 100 µM (inactive) with ACHN; 56.4 µM (inactive) with DLD-1; 97.1 µM (inactive) with HCT-116; 66.4 µM (inactive) in the assay on HT-29; > 100 µM (inactive) with IGROV-1. Further, the GI50 was > 100 µM (inactive) in the assay on Malme-3M; 23.9 µM (inactive) with NCI-H226; > 100 µM (inactive) with NCI-H23; > 100 µM (inactive) with OVCAR-4; > 100 µM (inactive) with OVCAR-5; > 100 µM (inactive) in the assay with RPMI-8226. The GI50 in the assay with RXF 393, in the assay with SF-295, with SK-MEL-2, in the assay on SW-620 and in the assay on UACC-257 was > 100 µM (inactive) throughout.
